Measured values as given in ChEMBL document CHEMBL3044888, “Fungicidal activity of indole derivatives against some plant pathogenic fungi” (J Pestic Sci, 2010).
Converted amounts (≈) assume the structure as drawn.

What was measured:
Rhizoctonia solani [1] = experiment: In vivo effect on peroxidase activity in Rhizoctonia solani assessed as DNA content at 0.1 times of IC50 concentration (reference value: 24 +/- 0.7 mg/l); format: functional
[2] = system: Globisporangium debaryanum; experiment: In vivo effect on peroxidase activity in Pythium debaryanum assessed as DNA content at 0.1 times of IC50 concentration (reference value: 31 +/- 0.8 mg/l); format: functional
Fusarium culmorum [3] = experiment: Fungicidal activity against Fusarium culmorum assessed as inhibition of hyphal growth by radial growth test; format: functional, organism-based
Rhizoctonia solani [4] = experiment: In vivo effect on peroxidase activity in Rhizoctonia solani assessed as DNA content at 0.25 times of IC50 concentration (reference value: 24 +/- 0.7 mg/l); format: functional
Rhizoctonia solani [5] = experiment: In vivo effect on peroxidase activity in Rhizoctonia solani assessed as reduced sugar content per gram of dry hyphal at 0.1 times of IC50 concentration (reference value: 17.3 +/- 1 mg/g of dry weight); format: functional
Fusarium culmorum [6] = experiment: In vivo effect on peroxidase activity in Fusarium culmorum assessed as DNA content at 2 times of IC50 concentration (reference value: 49.5 +/- 1.6 mg/l); format: functional
Fusarium culmorum [7] = experiment: In vivo effect on peroxidase activity in Fusarium culmorum assessed as DNA content at 1 times of IC50 concentration (reference value: 49.5 +/- 1.6 mg/l); format: functional
Rhizoctonia solani [8] = experiment: In vivo effect on peroxidase activity in Rhizoctonia solani assessed as non-reducing sugar content per gram of dry hyphal at 0.25 times of IC50 concentration (reference value: 2.8 +/- 0.2 mg/g of dry weight); format: functional
Fusarium culmorum [9] = experiment: In vivo effect on peroxidase activity in Fusarium culmorum assessed as DNA content at 0.25 times of IC50 concentration (reference value: 49.5 +/- 1.6 mg/l); format: functional
Rhizoctonia solani [10] = experiment: In vivo effect on peroxidase activity in Rhizoctonia solani assessed as non-reducing sugar content per gram of dry hyphal at 0.5 times of IC50 concentration (reference value: 2.8 +/- 0.2 mg/g of dry weight); format: functional
Rhizoctonia solani [11] = experiment: In vivo effect on peroxidase activity in Rhizoctonia solani assessed as RNA content at 0.5 times of IC50 concentration (reference value: 25 +/- 0.7 mg/l); format: functional
Macrophomina phaseolina [12] = experiment: In vivo effect on peroxidase activity in Macrophomina phaseoli assessed as DNA content at 2 times of IC50 concentration (reference value: 15.5 +/- 0.5 mg/l); format: functional
Macrophomina phaseolina [13] = experiment: In vivo effect on peroxidase activity in Macrophomina phaseoli assessed as DNA content at 1 times of IC50 concentration (reference value: 15.5 +/- 0.5 mg/l); format: functional
Macrophomina phaseolina [14] = experiment: In vivo effect on peroxidase activity in Macrophomina phaseoli assessed as RNA content at 2 times of IC50 concentration (reference value: 16.1 +/- 0.4 mg/l); format: functional
Macrophomina phaseolina [15] = experiment: In vivo effect on peroxidase activity in Macrophomina phaseoli assessed as total soluble sugar content per gram of dry hyphal at 0.1 times of IC50 concentration (reference value: 19.3 +/- 0.7 mg/g of dry weight); format: functional
Fusarium culmorum [16] = experiment: In vivo effect on peroxidase activity in Fusarium culmorum assessed as RNA content at 1 times of IC50 concentration (reference value: 51.5 +/- 1.5 mg/l); format: functional
[17] = system: Globisporangium debaryanum; experiment: Inhibition of peroxidase activity in Pythium debaryanum at 0.25 times of IC50 concentration
Fusarium culmorum [18] = experiment: In vivo effect on peroxidase activity in Fusarium culmorum assessed as RNA content at 0.25 times of IC50 concentration (reference value: 51.5 +/- 1.5 mg/l); format: functional
Rhizoctonia solani [19] = experiment: In vivo effect on peroxidase activity in Rhizoctonia solani assessed as non-reducing sugar content per gram of dry hyphal at 1 times of IC50 concentration (reference value: 2.8 +/- 0.2 mg/g of dry weight); format: functional
[20] = system: Globisporangium debaryanum; experiment: Inhibition of peroxidase activity in Pythium debaryanum at 0.5 times of IC50 concentration
Rhizoctonia solani [21] = experiment: In vivo effect on peroxidase activity in Rhizoctonia solani assessed as RNA content at 1 times of IC50 concentration (reference value: 25 +/- 0.7 mg/l); format: functional
Macrophomina phaseolina [22] = experiment: Fungicidal activity against Macrophomina phaseoli assessed as inhibition of hyphal growth by radial growth test; format: functional, organism-based
Macrophomina phaseolina [23] = experiment: In vivo effect on peroxidase activity in Macrophomina phaseoli assessed as non-reducing sugar content per gram of dry hyphal at 0.5 times of IC50 concentration (reference value: 12 +/- 0.8 mg/g of dry weight); format: functional
Rhizoctonia solani [24] = experiment: In vivo effect on peroxidase activity in Rhizoctonia solani assessed as reduced sugar content per gram of dry hyphal at 0.25 times of IC50 concentration (reference value: 17.3 +/- 1 mg/g of dry weight); format: functional
[25] = system: Globisporangium debaryanum; experiment: In vivo effect on peroxidase activity in Pythium debaryanum assessed as RNA content at 1 times of IC50 concentration (reference value: 32.2 +/- 0.7 mg/l); format: functional
[26] = system: Globisporangium debaryanum; experiment: In vivo effect on peroxidase activity in Pythium debaryanum assessed as DNA content at 1 times of IC50 concentration (reference value: 31 +/- 0.8 mg/l); format: functional
Macrophomina phaseolina [27] = experiment: In vivo effect on peroxidase activity in Macrophomina phaseoli assessed as RNA content at 1 times of IC50 concentration (reference value: 16.1 +/- 0.4 mg/l); format: functional
Fusarium culmorum [28] = experiment: In vivo effect on peroxidase activity in Fusarium culmorum assessed as DNA content at 0.1 times of IC50 concentration (reference value: 49.5 +/- 1.6 mg/l); format: functional
Macrophomina phaseolina [29] = experiment: In vivo effect on peroxidase activity in Macrophomina phaseoli assessed as RNA content at 0.1 times of IC50 concentration (reference value: 16.1 +/- 0.4 mg/l); format: functional
[30] = system: Globisporangium debaryanum; experiment: In vivo effect on peroxidase activity in Pythium debaryanum assessed as DNA content at 0.25 times of IC50 concentration (reference value: 31 +/- 0.8 mg/l); format: functional
Macrophomina phaseolina [31] = experiment: In vivo effect on peroxidase activity in Macrophomina phaseoli assessed as reduced sugar content per gram of dry hyphal at 0.25 times of IC50 concentration (reference value: 7.3 +/- 0.5 mg/g of dry weight); format: functional
Macrophomina phaseolina [32] = experiment: In vivo effect on peroxidase activity in Macrophomina phaseoli assessed as DNA content at 0.5 times of IC50 concentration (reference value: 15.5 +/- 0.5 mg/l); format: functional
Rhizoctonia solani [33] = experiment: In vivo effect on peroxidase activity in Rhizoctonia solani assessed as total soluble sugar content per gram of dry hyphal at 0.25 times of IC50 concentration (reference value: 20.1 +/- 0.8 mg/g of dry weight); format: functional
[34] = system: Globisporangium debaryanum; experiment: In vivo effect on peroxidase activity in Pythium debaryanum assessed as DNA content at 2 times of IC50 concentration (reference value: 31 +/- 0.8 mg/l); format: functional
[35] = Inhibition of polyphenoloxidase activity in Fusarium culmorum
Fusarium culmorum [36] = experiment: In vivo effect on peroxidase activity in Fusarium culmorum assessed as RNA content at 0.1 times of IC50 concentration (reference value: 51.5 +/- 1.5 mg/l); format: functional

SMILES	Activity (Rhizoctonia solani [1]) [mg/L]	Activity [2] [mg/L]	IC50 (Fusarium culmorum [3]) [µg/mL]	Activity (Rhizoctonia solani [4]) [mg/L]	Activity (Rhizoctonia solani [5]) [mg]	Activity (Fusarium culmorum [6]) [mg/L]	Activity (Fusarium culmorum [7]) [mg/L]	Activity (Rhizoctonia solani [8]) [mg]	Activity (Fusarium culmorum [9]) [mg/L]	Activity (Rhizoctonia solani [10]) [mg]	Activity (Rhizoctonia solani [11]) [mg/L]	Activity (Macrophomina phaseolina [12]) [mg/L]	Activity (Macrophomina phaseolina [13]) [mg/L]	Activity (Macrophomina phaseolina [14]) [mg/L]	Activity (Macrophomina phaseolina [15]) [mg]	Activity (Fusarium culmorum [16]) [mg/L]	inhibition [17] [%]	Activity (Fusarium culmorum [18]) [mg/L]	Activity (Rhizoctonia solani [19]) [mg]	inhibition [20] [%]	also measured
CC(=O)n1c(-c2ccccc2)cc2ccccc21	23.2	26	86.7 (≈ 368 µM)	25.2	9.7	19.5	27.2	1.2	29.9	0.4	27.9	6.5	8.2	6.7	4.2	28.3	3	31.1	0.2	1.3	Activity (Rhizoctonia solani [21]): 32.6 mg/L; IC50 (Macrophomina phaseolina [22]): 93 µg/mL (≈ 395 µM); Activity (Macrophomina phaseolina [23]): 10.2 mg; Activity (Rhizoctonia solani [24]): 9.6 mg; Activity [25]: 18.2 mg/L; Activity [26]: 17.5 mg/L; Activity (Macrophomina phaseolina [27]): 8.5 mg/L; Activity (Fusarium culmorum [28]): 43.6 mg/L; Activity (Macrophomina phaseolina [29]): 12.9 mg/L; Activity [30]: 25.8 mg/L; Activity (Macrophomina phaseolina [31]): 14.8 mg; Activity (Macrophomina phaseolina [32]): 8.3 mg/L; Activity (Rhizoctonia solani [33]): 10.8 mg; Activity [34]: 21.6 mg/L; IC50 [35]: 41.5 µg/mL (≈ 176 µM); Activity (Fusarium culmorum [36]): 45.4 mg/L
c1ccc(-c2cc3ccccc3[nH]2)cc1 [2-PHENYL-1H-INDOLE]	28.3	30.9	67.4 (≈ 349 µM)	28.9	44.3	23.8	25.3	11.4	23.7	3.1	30.8	5.7	6.1	5.9	8.7	26.3	3.7	24.3	2.2	0	Activity (Rhizoctonia solani [21]): 32.2 mg/L; IC50 (Macrophomina phaseolina [22]): 96 µg/mL (≈ 497 µM); Activity (Macrophomina phaseolina [23]): 1.4 mg; Activity (Rhizoctonia solani [24]): 60.3 mg; Activity [25]: 30.6 mg/L; Activity [26]: 29.4 mg/L; Activity (Macrophomina phaseolina [27]): 6.3 mg/L; Activity (Fusarium culmorum [28]): 28.6 mg/L; Activity (Macrophomina phaseolina [29]): 6.7 mg/L; Activity [30]: 19.1 mg/L; Activity (Macrophomina phaseolina [31]): 4.6 mg; Activity (Macrophomina phaseolina [32]): 8 mg/L; Activity (Rhizoctonia solani [33]): 71.8 mg; Activity [34]: 23.3 mg/L; IC50 [35]: 87.6 µg/mL (≈ 453 µM); Activity (Fusarium culmorum [36]): 29.7 mg/L
